How the values were obtained:
MACH1-T1R = assay: MIC, microaerobic 96 well-plate, MOPS minimal media, IroK expression studies (Example 45); assay type: cell-based, E. coli; conditions: for MIC of other organic acids of similar molecular makeup on IroK expression: IroK expressed from pKK223-3
Procedure: The two oligonucleotides were added in a 1:1 ratio and annealed according to standard methodology in a thermal cycler. Ligation of the annealed primer product with the pKK223-3 expression vector (SEQ ID NO:008, Pharmacia, Piscataway, N.J.) was performed with T4 Ligase (Invitrogen, Carlsbad, Calif.) and incubated at 25° C. overnight. The ligation product was then electroporated into competent MACH1™-T1^R, plated on LB+ampicillan, and incubated at 37° C. for 24 hours. Plasmids were isolated and confirmed by purification and subsequent restriction digest and sequencing (Macrogen, Rockville, Md.). MICs were then determined corresponding to 1 mM IPTG induction.
The minimum inhibitory concentration (MIC) was determined microaerobically in a 96 well-plate format. Overnight cultures of strains were grown in 5 mL LB (with antibiotic where appropriate). A 1% (v/v) inoculum was introduced into a 15 ml culture of MOPS minimal media. After the cells reached mid-exponential phase, the culture was diluted to an OD600 of 0.200. The cells were further diluted 1:20 and a […] aliquot was used to inoculate each well of a 96 well plate (˜10^4 cells per well).

BX3_0194 = assay: 3-HP production by BX3_0194 in SM3 medium without and with 10 μg/ml cerulenin; assay type: cell-based, E. coli
Procedure: All data are the average of triplicate cultures.
Under these conditions, the specific productivity after 24 hours is 1.3 g 3HP per gDCW.

BX3_0206 = assay: 3-HP production by BX3_0206 in SM3 medium without and with 10 μg/ml cerulenin; assay type: cell-based, E. coli
Procedure: All data are the average of triplicate cultures. […] Under these conditions, the specific productivity after 24 hours is […] 3HP per gDCW.

BX3_0195 = assay: 3-HP production by BX3_0195 in SM3 medium without and with 10 μg/ml cerulenin; assay type: cell-based, E. coli
Procedure: Cultures were started from freezer stocks by standard practice (Sambrook and Russell, 2001) into 50 mL of LB media plus 100 μg/mL ampicillin and grown to stationary phase overnight at 37° C. with rotation at 225 rpm. Five ml of this culture were transferred to 100 ml of SM3 media plus 40 g/L glucose, 100 μg/ml ampicillin, and 1 mM IPTG in triplicate 250-ml baffled flasks and incubated at 37° C., 225 rpm. […] Dry cell weight (DCW) is calculated as 0.33 times the measured OD600 value, based on baseline DCW to OD600 determinations. All data are the average of triplicate cultures.

E. coli K12 = conditions: aerobic, 24 h; putrescine, cadaverine, spermidine 0.1 g/L, sodium bicarbonate 20 mM; value is the 3-HP concentration
[1] = 24 hr, SM3 medium, presence of 10 μg/ml cerulenin

## CC(=O)O [acetic, acetic acid]
MACH1-T1R
  MIC of other organic acids of similar molecular makeup on IroK expression: unchanged

## C=CC(=O)O [acrylic, acrylic acid]
MACH1-T1R
  MIC of other organic acids of similar molecular makeup on IroK expression: unchanged

## C/C=C/C/C=C/CCC(=O)[C@H]1O[C@H]1C(N)=O [cerulenin]
BX3_0194
  specific productivity after 24 hours: 1.3 g 3HP per gDCW
BX3_0194; 4 hr
  3HP: 0.003 g/L
  OD600: 1.3
BX3_0194; 6 hr
  3HP: 0.14 g/L
  OD600: 2.6
BX3_0194; 8 hr
  3HP: 0.43 g/L
  OD600: 3.1
BX3_0194; 24 hr
  3HP: 1.43 g/L
  OD600: 3.3
BX3_0206; [1]
  3HP: 0.43 g/L
  OD600: 6.4
BX3_0206; BX3_0206, SM3 medium, 10 μg/ml cerulenin
  specific productivity after 24 hours: 0.20 g 3HP per gDCW
BX3_0195
  specific productivity after 24 hours: 0.54 g 3HP per gDCW
BX3_0195; 4 hr
  3HP: 0.003 g/L
  OD600: 0.97
BX3_0195; 6 hr
  3HP: 0.07 g/L
  OD600: 1.57
BX3_0195; 8 hr
  3HP: 0.31 g/L
  OD600: 2.36
BX3_0195; 24 hr
  3HP: 1.17 g/L
  OD600: 6.59

## CC(O)C(=O)O (centres unmarked) [lactic, lactic acid]
MACH1-T1R
  MIC of other organic acids of similar molecular makeup on IroK expression: unchanged

## O=C([O-])O.[Na+] [sodium bicarbonate]
E. coli K12
  Minimum inhibitory concentration (MIC) of 3-HP for E. coli K12 in M9 minimal media supplemented with the substance: 30 mg/mL

## MKPALRDFIAIVQERLASVTA [IroK]
MACH1-T1R; expressed from pKK223-3, 1 mM IPTG, microaerobic, MOPS minimal media, 24 h
  fold increase in MIC of 3-HP on increased expression of IroK: > 2 fold

Reference: US20130122541A1, “MICROORGANISM PRODUCTION OF HIGH-VALUE CHEMICAL PRODUCTS, AND RELATED COMPOSITIONS, METHODS AND SYSTEMS” (The Regents of the University of Colorado, priority 2010, published 2013)
